For ten compounds, IC50 and Kd results are on record in patent US20240025906A1 (NEURON23, INC., priority 2022, published 2024).

The subject of assay [1] is JAK1/TYK2 pSTAT5 (Tyr694/699) in THP-1 cell line. Put plainly: IFNa-stimulated JAK1/TYK2 pSTAT5 (Tyr694/699) inhibition cellular assay, AlphaLISA. Format: cell-based. The note with it: Homo sapiens; THP-1 cells, IFNa-stimulated, AlphaLISA (Assay B); read-out: Cellular_THP1_IFNa-pSTATS_TYK2. Put shortly: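 THP-1, 2e4 cells/well, HBSS; cpd 1 h 37 °C (10000–0.04 nM final, 6-fold, 8 pt); IFNa 100 ng/mL added, 30 min; lyse, freeze −80 °C; pSTAT5 AlphaLISA, 615 nm; 4PL IC50, bottom fixed 0, slope −1.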

Another assay deals with T1, TYK2 JH2 (Homo sapiens, UniProt P29597).
T1 construct: purchased DiscoverX (KINOMEscan KdELECT service); host or cells: E. coli BL21-derived (T7 phage display) or HEK-293
Nature of the assay: TYK2 JH2 binding assay (KINOMEscan KdELECT competitive binding). Particulars: TYK2 JH2 domain, DiscoverX KINOMEscan KdELECT (Assay A); read-out: Biochemical TYK2_DiscoverX_JH2_BND_Kd. Summed up: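 The assay measures displacement of DNA- or phage-tagged TYK2 pseudokinase domain from an affinity resin; compound binding lowers the amount captured, read by qPCR. Incubation lasts 1 h at room temperature.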

T1 sequence (P29597 589-875 limits assumed): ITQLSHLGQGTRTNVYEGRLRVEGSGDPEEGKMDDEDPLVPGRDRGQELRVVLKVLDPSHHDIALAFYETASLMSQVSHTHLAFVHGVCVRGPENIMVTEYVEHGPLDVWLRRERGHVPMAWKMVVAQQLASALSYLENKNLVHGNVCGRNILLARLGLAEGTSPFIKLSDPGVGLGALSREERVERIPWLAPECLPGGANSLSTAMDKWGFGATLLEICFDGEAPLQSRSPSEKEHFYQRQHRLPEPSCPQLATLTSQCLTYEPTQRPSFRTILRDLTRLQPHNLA

For the compound `CNc1ncc(-c2nc3ccc(N4CCOCC4)cn3n2)c2cc(NC(=O)C3(F)CC3)ncc12` [Example 527, 1-fluoro-N-(8-(methylamino)-5-(6-morpholino-[1,2,4]triazolo[1,5-a]pyridin-2-yl)-2,7-naphthyridin-3-yl)cyclopropane-1-carboxamide], in assay [1], the IC50 was no more than 500 nM. Also, the Kd on TYK2 JH2 is no more than 100 nM.
Take `CNc1ncc(-c2nc3ccc(N4CCOCC4)cn3n2)c2cc(NC(=O)C3CCC3)ncc12` [Example 528, N-(8-(methylamino)-5-(6-morpholino-[1,2,4]triazolo[1,5-a]pyridin-2-yl)-2,7-naphthyridin-3-yl)cyclobutanecarboxamide]: in assay [1], the IC50 is no more than 500 nM. For the same compound, on TYK2 JH2, the Kd is no more than 100 nM.
Take `CNc1ncc(-c2nc3ccc(N4CCOCC4)cn3n2)c2cc(NC(=O)C3(OC)CC3)ncc12` [Example 529, 1-methoxy-N-(8-(methylamino)-5-(6-morpholino-[1,2,4]triazolo[1,5-a]pyridin-2-yl)-2,7-naphthyridin-3-yl)cyclopropane-1-carboxamide]: the IC50 in assay [1] was no more than 500 nM. On TYK2 JH2, the Kd is no more than 100 nM.
Turning to `CNc1ncc(-c2nc3ccc(N4CCOCC4)cn3n2)c2cc(NC(=O)[C@@H]3C[C@@H]3C)ncc12` [Example 530, (1R,2S)-2-methyl-N-(8-(methylamino)-5-(6-morpholino-[1,2,4]triazolo[1,5-a]pyridin-2-yl)-2,7-naphthyridin-3-yl)cycloproapne-1-carboxamide], the IC50 in assay [1] is no more than 500 nM. Further, the Kd at TYK2 JH2 is no more than 100 nM.
Take `CNc1ncc(-c2nc3ccc(N4CCOCC4)cn3n2)c2cc(NC(=O)C3CC34CC4)ncc12` (centres unmarked) [Example 531, N-(8-(methylamino)-5-(6-morpholino-[1,2,4]triazolo[1,5-a]pyridin-2-yl)-2,7-naphthyridin-3-yl)spiro[2.2]pentane-1-carboxamide]: in assay [1], the IC50 is no more than 500 nM. Besides, the Kd at TYK2 JH2 was no more than 100 nM.
For `CNc1ncc(-c2nc3ccc(N4CCOCC4)cn3n2)c2cc(Nc3ccccn3)ncc12` [Example 536, N^1-methyl-4-(6-morpholino-[1,2,4]triazolo[1,5-a]pyridin-2-yl)-N^6-(pyridin-2-yl)-2,7-naphthyridine-1,6-diamine] the same measures were no more than 500 nM and no more than 100 nM.
For `CNc1ncc(-c2nc3ccc(N4CCOCC4)cn3n2)c2cc(Nc3ncccc3F)ncc12` [Example 537, N^6-(3-fluoropyridin-2-yl)-N^1-methyl-4-(6-morpholino-[1,2,4]triazolo[1,5-a]pyridin-2-yl)-2,7-naphthyridine-1,6-diamine], the IC50 in assay [1] is no more than 500 nM. For the same compound, on TYK2 JH2, the Kd is no more than 100 nM.
Regarding `CNc1ncc(-c2nc3ccc(N4CCOCC4)cn3n2)c2cc(Nc3ccc(C(C)(C)O)cn3)ncc12` [Example 538, 2-(6-((8-(methylamino)-5-(6-morpholino-[1,2,4]triazolo[1,5-a]pyridin-2-yl)-2,7-naphthyridin-3-yl)amino)pyridin-3-yl)propan-2-ol], in assay [1], the IC50 is no more than 500 nM. For the same compound, on TYK2 JH2, the Kd was no more than 100 nM.
For `CNc1ncc(-c2nc3ccc(N4CCO[C@@H](C)C4)cn3n2)c2cc(NC(=O)[C@H]3C[C@H]3C)ncc12` [Example 539, (1S,2R)-2-methyl-N-(8-(methylamino)-5-(6-((S)-2-methylmorpholino)-[1,2,4]triazolo[1,5-a]pyridin-2-yl)-2,7-naphthyridin-3-yl)cyclopropane-1-carboxamide], the IC50 in assay [1] is no more than 500 nM. Also, on TYK2 JH2, the Kd was no more than 100 nM.
Consider `CNc1ncc(-c2nc3ccc(N4CCO[C@@H](C)C4)cn3n2)c2cc(NC(=O)C3(F)CC3)ncc12` [Example 540, (S)-1-fluoro-N-(8-(methylamino)-5-(6-(2-methylmorpholino)-[1,2,4]triazolo[1,5-a]pyridin-2-yl)-2,7-naphthyridin-3-yl)cyclopropane-1-carboxamide], for which the IC50 in assay [1] was no more than 500 nM. For the same compound, the Kd at TYK2 JH2 is no more than 100 nM.
